Assay results published in article PMC10017027, “Design and Synthesis of Novel HIV-1 NNRTIs with Bicyclic Cores and with Improved Physicochemical Properties” (Journal of Medicinal Chemistry, 2023).

What was measured:
Assay type in all cases: cell-based
HIV-1 HXB2 Y181C variant = assay: MT-4 antiviral cytopathic effect assay, HXB2-Y181C
Protocol: (§1) The prepared compounds were tested for their anti-HIV-1 activity (Table 1). A viral cytopathic effect assay in MT-4 cells with HIV-1 IIIB virus was used to determine compound potency (EC50, 50% cell viability) in protecting virus induced cell killing. Compound cytotoxicity was assessed in MT-4 cells in the absence of virus (CC50, 50% cytotoxicity). […] ETV contains bromo and amino substitutions on the DAPY core. […] Likely, with the smaller cyano arm I in 1, 3, and 5, the cores could be further elaborated to optimize the compound position in the pocket and to improve potency.
(§2) Compounds were tested in a high-throughput 384-well assay format for their ability to inhibit the virus replication-induced cytopathic effect in MT-4 cell cultures acutely infected with HIV-1 (IIIB strain), HXB2, HXB2-K103N, and HXB2-Y181C. Compounds were serially diluted (1:3) in DMSO on 384-well polypropylene plates and further diluted 200-fold into complete RPMI media (10% FBS, 1% P/S) using Biotek Micro Flow and an Agilent ECHO acoustic dispenser. Each plate contained up to eight test compounds, with negative (no drug control) and 5 μM AZT positive controls. MT-4 cells were further diluted in complete RPMI media and added to each plate using a Micro-Flo dispenser. After five days of incubation in a humidified and temperature-controlled incubator (37 °C), Cell Titer Glo (Promega) was added to the assay plates to quantify the amount of […]. EC50 and CC50 values were defined as the compound concentration that causes a 50% decrease in luminescence signal and were calculated using a sigmoidal dose-response model to generate curve fits.

HIV-1 HXB2 = assay: MT-4 antiviral cytopathic effect assay, HXB2 wild-type virus; conditions: Human immunodeficiency virus 1, MT4; HIV-1 HXB2 wild-type, MT-4 cells; read-out: EC50 HXB2
Protocol: The prepared compounds were tested for their anti-HIV-1 activity (Table 1). A viral cytopathic effect assay in MT-4 cells with HIV-1 IIIB virus was used to determine compound potency (EC50, 50% cell viability) in protecting virus induced cell killing. Compound cytotoxicity was assessed in MT-4 cells in the absence of virus (CC50, 50% cytotoxicity).
as §2

in vitro = conditions: human
Protocol: as §1, §2

HIV-1 HXB2 K103N variant = assay: MT-4 antiviral cytopathic effect assay, HXB2-K103N
Protocol: as §1, §2

[1] = preliminary biological data, in words
[2] = supplement CSV, fold change vs HXB2

## Cc1cc(C#N)cc(C)c1N1CC(=O)Nc2cnc(Nc3ccc(C#N)cc3)nc21 [Compound 3, 4-(2-((4-Cyanophenyl)amino)-6-oxo-6,7-dihydropteridin-8(5H)-yl)-3,5-dimethylbenzonitrile]
HIV-1 HXB2 Y181C variant; Human immunodeficiency virus 1, HXB2, read-out: EC50 Y181C
  EC50: 30.2 nM
HIV-1 HXB2 Y181C variant; fold change: ratio of potency against HXB2 Y181C and parental HXB2
  Y181C (FC): 3.7
HIV-1 HXB2 Y181C variant; [1]
  potency against Y181C mutated strain: high potency
HIV-1 HXB2 Y181C variant; [2]
  Y181C (FC): 3.7
HIV-1 HXB2
  EC50: 8.1 nM
In vitro
  CC50 at 5 days: > 50000 nM
HIV-1 HXB2 K103N variant; Human immunodeficiency virus 1, HXB2, read-out: EC50 K103N
  EC50: 45.2 nM
HIV-1 HXB2 K103N variant; fold change: ratio of potency against HXB2 K103N and parental HXB2
  K103N (FC): 5.6
HIV-1 HXB2 K103N variant; [1]
  potency against K103N mutated strain: high potency
HIV-1 HXB2 K103N variant; [2]
  K103N (FC): 5.6
